The numbers were not newly measured in patent publication US10080720B2, “Pharmaceutical composition containing docetaxel” (GAINIA (SHANGHAI) PATENT TECHNOLOGY LTD., priority 2014, dated 2018), which cites them from elsewhere.

SMILES strings stand for the structures.

As to `CC(=O)O[C@@]12CO[C@@H]1C[C@H](O)[C@@]1(C)C(=O)[C@H](O)C3=C(C)[C@@H](OC(=O)[C@H](O)[C@@H](NC(=O)OC(C)(C)C)c4ccccc4)C[C@@](O)([C@@H](OC(=O)c4ccccc4)[C@H]21)C3(C)C` [docetaxel], the “solubility of docetaxel in water” value was 6 to 7 µg/mL.
